# Source: patent US10821115B2, “Compounds that inhibit Mcl-1 protein” (priority 2017, dated 2020)
# Like-named read-outs stand apart in the source and are kept apart here.
# Tests used:
# [1] = target: recombinant human Mcl-1 (residues 171-327) / Bim interaction (Homo sapiens (Human), UniProt Q07820); experiment: biochemical; assay type: binding; conditions: read-out: Mcl-1 HTRF IC50
# [2] = system: human multiple myeloma cell line, OPM-2; experiment: Cell viability assay (OPM-2 10 FBS), CellTiter-Glo; assay type: cell-based
# In short: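 Serially diluted test compounds are incubated 16 h with cells (3000/well) in RPMI 1640 supplemented with 10% FBS. Viability is then measured by luminescence and IC50 calculated by 4-parameter logistic fit.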
# [3] = TR-FRET, Mcl-1(171-327) / biotin-Bim (51-76)
# [4] = Homo sapiens, OPM-2, 16 h, read-out: OPM-2 10% FBS IC50 IP, OPM-2 cells, 10% FBS, 16 h, CellTiter-Glo
# [5] = read-out: OPM-2 10% FBS IC50 IP, OPM-2 cells, 10% FBS, 16 h, CellTiter-Glo
# [6] = 0.1 nM Mcl-1(171-327), 0.05 nM biotin-Bim (51-76)
# [7] = Homo sapiens, OPM-2, 16 h, read-out: OPM-2 10% FBS IC50 IP, OPM-2 cells, 10% FBS, 16 h incubation
# recombinant human Mcl-1 (residues 171-327) / Bim interaction, sequence (Q07820 171-327): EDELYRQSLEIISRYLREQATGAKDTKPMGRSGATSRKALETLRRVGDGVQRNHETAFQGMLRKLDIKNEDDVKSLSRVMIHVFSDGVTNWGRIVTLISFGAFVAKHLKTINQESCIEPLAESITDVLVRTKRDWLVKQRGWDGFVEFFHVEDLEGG
Compound,"IC50 [1, 3] [nM]","IC50 [2, 4] [nM]","IC50 [1, 6] [nM]",other results
"CO[C@@]1(CCO)/C=C/C[C@H](C)[C@@H](C)S(=O)(=O)N(C)C(=O)c2ccc3c(c2)N(C[C@@H]2CC[C@H]21)C[C@@]1(CCCc2cc(Cl)ccc21)CO3 [Example 100219, (1S,3′R,6′R,7′S,8′E,11′S,12′R)-6-chloro-7′-(2-hydroxyethyl)-7′-methoxy-11′,12′,14′-trimethyl-3,4-dihydro-2H,15′H-spiro[naphthalene-1,22′-[20]oxa[13]thia[1,14]diazatetracyclo [14.7.2.0~3,6~.0~19,24~]pentacosa[8,16,18,24]tetraen]-15′-one 13′,13′-dioxide]",0.401,974,,
"C[C@@H]1[C@@H](C)C/C=C/[C@@](O)(CC(=O)N2CCCCC2)[C@@H]2CC[C@H]2CN2C[C@@]3(CCCc4cc(Cl)ccc43)COc3ccc(cc32)C(=O)NS1(=O)=O [Example 100257, (1S,3′R,6′R,7′S,8′E,11′S,12′R)-6-chloro-7′-hydroxy-11′,12′-dimethyl-7′-(2-oxo-2-(1-piperidinyl)ethyl)-3,4-dihydro-2H,15′H-spiro[naphthalene-1,22′-[20]oxa[13]thia[1,14]diazatetracyclo [14.7.2.0~3,6~.0~19,24~]pentacosa[8,16,18,24]tetraen]-15′-one 13′,13′-dioxide]",0.18,,,"IC50 [2, 5]: 80 nM"
C[C@@H]1[C@@H](C)C/C=C/[C@](O)(CN(C)CCO)[C@@H]2CC[C@H]2CN2C[C@@]3(CCCc4cc(Cl)ccc43)COc3ccc(cc32)C(=O)NS1(=O)=O [Example 129],,,1.69,"IC50 [2, 7]: 2630 nM"
"C[C@@H]1[C@@H](C)CCC[C@@](O)([C@@H]2CCN(C)C2=O)[C@@H]2CC[C@H]2CN2C[C@@]3(CCCc4cc(Cl)ccc43)COc3ccc(cc32)C(=O)NS1(=O)=O [Example 100203, (1S,3′R,6′R,7′S,11′S,12′R)-6-chloro-7′-hydroxy-11′,12′-dimethyl-7′-((3S)-1-methyl-2-oxo-3-pyrrolidinyl)-3,4-dihydro-2H,15′H-spiro[naphthalene-1,22′-[20]oxa[13]thia[1,14]diazatetracyclo [14.7.2.0~3,6~.0~19,24~]pentacosa[16,18,24]trien]-15′-one 13′,13′-dioxide]",0.285,,,"IC50 [2, 5]: 491 nM"
COC[C@@H]1[C@@H](C)C/C=C/[C@](CN2CCN(C(C)C)CC2)(OC)[C@@H]2CC[C@H]2CN2C[C@@]3(CCCc4cc(Cl)ccc43)COc3ccc(cc32)C(=O)NS1(=O)=O [Example 173],,,0.173,"IC50 [2, 7]: 323 nM"
"CC[C@@H]1CCCC[C@](COC)(OC)[C@@H]2CC[C@H]2CN2C[C@@]3(CCCc4cc(Cl)ccc43)COc3ccc(cc32)C(=O)NS1(=O)=O [Example 100037, (1S,3′R,6′R,7′S,12′R)-6-chloro-12′-ethyl-7′-methoxy-7′-(methoxymethyl)-3,4-dihydro-2H,15′H-spiro[naphthalene-1,22′-[20]oxa[13]thia[1,14]diazatetracyclo [14.7.2.0~3,6~.0~19,24~]pentacosa[16,18,24]trien]-15′-one 13′,13′-dioxide]",1.8,1920,,
"C[C@@H]1[C@@H](C)CCC[C@]2(CCO2)[C@@H]2CC[C@H]2CN2C[C@@]3(CCCc4cc(Cl)ccc43)COc3ccc(cc32)C(=O)NS1(=O)=O (single isomer, unassigned) [Example 100229]",0.356,1490,,
"CO[C@@]1(CO)CCC[C@H](C)[C@@H](C)S(=O)(=O)NC(=O)c2ccc3c(c2)N(C[C@@H]2CC[C@H]21)C[C@@]1(CCCc2cc(Cl)ccc21)CO3 (stereo in doubt) [Example 100184, (1S,3′R,6′R,7′S,11′S,12′R)-6-chloro-7′-(hydroxymethyl)-7′-methoxy-11′,12′-dimethyl-3,4-dihydro-2H,15′H-spiro[naphthalene-1,22′-[20]oxa[13]thia[1,14]diazatetracyclo [14.7.2.0~3,6~.0~19,24~]pentacosa[16,18,24]rien]-15′-one 13′,13′-dioxide]",0.717,,,"IC50 [2, 5]: 179 nM"
"CO[C@@]1(CN2CC3(C2)CS(=O)(=O)C3)/C=C/C[C@H](C)[C@@H](C)S(=O)(=O)NC(=O)c2ccc3c(c2)N(C[C@@H]2CC[C@H]21)C[C@@]1(CCCc2cc(Cl)ccc21)CO3 [Example 202, (1S,3′R,6′R,7′S,8′E,11′S,12′R)-6-chloro-7′-((2,2-dioxido-2-thia-6-azaspiro[3 .3]hept-6-yl)methyl)-7′-methoxy-11′,12′-dimethyl-3,4-dihydro-2H,15′H-spiro[naphthalene-1,22′-[20]oxa[13]thia[1,14]diazatetracyclo [14.7.2.0~3,6~.0~19,24~]pentacosa[8,16,18,24]tetraen]-15′-one 13′,13′-dioxide]",,,0.058,"IC50 [2, 7]: 142 nM"
C[C@@H]1[C@@H](C)CCC[C@](O)(c2ncccn2)[C@@H]2CC[C@H]2CN2C[C@@]3(CCCc4cc(Cl)ccc43)COc3ccc(cc32)C(=O)NS1(=O)=O (stereo in doubt) [Example 100270],,3720,,IC50 [1]: 0.776 nM
"C[C@@H]1[C@@H](C)CCC[C@](O)(CC[S@@+](C)[O-])[C@@H]2CC[C@H]2CN2C[C@@]3(CCCc4cc(Cl)ccc43)COc3ccc(cc32)C(=O)NS1(=O)=O [Example 100330, (1S,3′R,6′R,7′S,11′S,12′R)-6-chloro-7′-hydroxy-11′,12′-dimethyl-7′-(2-((R)-methylsulfinyl)ethyl)-3,4-dihydro-2H,15′H-spiro[naphthalene-1,22′-[20]oxa[13]thia[1,14]diazatetracyclo [14.7.2.0~3,6~.0~19,24~]pentacosa[16,18,24]trien]-15′-one 13′,13′-dioxide]",0.083,8260,,
"COCCN1CCN(CCO[C@@]2(C)/C=C/C[C@H](C)[C@@H](C)S(=O)(=O)NC(=O)c3ccc4c(c3)N(C[C@@H]3CC[C@H]32)C[C@@]2(CCCc3cc(Cl)ccc32)CO4)CC1 [Example 100485, (1S,3′R,6′R,7′S,8′E,11′S,12′R)-6-chloro-7′-(2-(4-(2-methoxyethyl)-1-piperazinyl)ethoxy)-7′,11′,12′-trimethyl-3,4-dihydro-2H,15′H-spiro[naphthalene-1,22′-[20]oxa[13]thia[1,14]diazatetracyclo [14.7.2.0~3,6~.0~19,24~]pentacosa[8,16,18,24]tetraen]-15′-one 13′,13′-dioxide]",0.192,272,,
"C[C@@H]1[C@@H](C)C/C=C/[C@@](O)(CC(=O)N(C)c2ccccc2)[C@@H]2CC[C@H]2CN2C[C@@]3(CCCc4cc(Cl)ccc43)COc3ccc(cc32)C(=O)NS1(=O)=O [Example 100247, 2-((1S,3′R,6′R,7′S,8′E,11′S,12′R)-6-chloro-7′-hydroxy-11′,12′-dimethyl-13′,13′-dioxido-15′-oxo-3,4-dihydro-2H-spiro[naphthalene-1,22′-[20]oxa[13]thia[1,14]diazatetracyclo [14.7.2.0~3,6~.0~19,24~]pentacosa[8,16,18,24]tetraen]-7′-yl)-N-methyl-N-phenylacetamide]",0.542,624,,
"CO[C@]1(CN2CCC2)/C=C/C[C@H](C)[C@@H](C)S(=O)(=O)NC(=O)c2ccc3c(c2)N(C[C@@H]2CC[C@H]21)C[C@@]1(CCCc2cc(Cl)ccc21)CO3 [Example 76, (1S,3′R,6′R,7′R,8′E,11′S,12′R)-7′-(1-azetidinylmethyl)-6-chloro-7′-methoxy-11′,12′-dimethyl-3,4-dihydro-2H,15′H-spiro[naphthalene-1,22′-[20]oxa[13]thia[1,14]diazatetracyclo [14.7.2.0~3,6~.0~19,24~]pentacosa[8,16,18,24]tetraen]-15′-one 13′,13′-dioxide]",,,3.81,"IC50 [2, 7]: 670 nM"
"CO[C@@]1(CN2CCN3CCN(C(=O)CCS(=O)(=O)c4ccccc4)C[C@@H]3C2)/C=C/C[C@H](C)[C@@H](C)S(=O)(=O)NC(=O)c2ccc3c(c2)N(C[C@@H]2CC[C@H]21)C[C@@]1(CCCc2cc(Cl)ccc21)CO3 (single isomer, unassigned) [Example 294]",,,0.66,"IC50 ([2]; read-out: OPM-2 10% FBS IC50 IP, OPM-2 cells, 10% FBS, 16 h incubation): 687 nM"
"CC[C@@H]1CCCC[C@@]2(COCC(=O)O2)[C@@H]2CC[C@H]2CN2C[C@@]3(CCCc4cc(Cl)ccc43)COc3ccc(cc32)C(=O)NS1(=O)=O [Example 100043, (2S,3′R,6′R,12′R,22′S)-6″-chloro-12′-ethyl-3″,4″-dihydro-2″H,6H,15′H-dispiro[1,4-dioxane-2,7′-[20]oxa[13]thia[1,14]diazatetracyclo [14.7.2.0~3,6~.0~19,24~]pentacosa[16,18,24]triene-22′,1″-naphthalene]-6,15′-dione 13′,13′-dioxide]",1.67,7280,,
"COCCOCCN1CCN(C[C@]2(OC)/C=C/C[C@H](C)[C@@H](C)S(=O)(=O)NC(=O)c3ccc4c(c3)N(C[C@@H]3CC[C@H]32)C[C@@]2(CCCc3cc(Cl)ccc32)CO4)CC1 [Example 332, (1S,3′R,6′R,7′S,8′E,11′S,12′R)-6-chloro-7′-methoxy-7′-((4-(2-(2-methoxyethoxy)ethyl)-1-piperazinyl)methyl)-11′,12′-dimethyl-3,4-dihydro-2H,15′H-spiro[naphthalene-1,22′-[20]oxa[13]thia[1,14]diazatetracyclo [14.7.2.0~3,6~.0~19,24~]pentacosa[8,16,18,24]tetraen]-15′-one 13′,13′-dioxide]",,,0.096,"IC50 [2, 7]: 89 nM"
